Reference: publication PMC7373712 (British Journal of Clinical Pharmacology, 2020)
Read-outs that look alike come from different tables or passages of the source.

Columns and labels:
[1] = Pharmacokinetics of oral microdosed FXaI cocktail; settings: for sex differences in pharmacokinetics (in words): 7 male, 11 female; for Ae (amount excreted in urine as parent drug) / Cl/F (apparent oral clearance): geom. mean (95% CI); for interaction / change of pharmacokinetics during voriconazole (in words): microdose cocktail with voriconazole
[2] = cited from earlier work
CYP3A = CYP3A activity by oral microdosed midazolam; settings: for AUC: both, human, in vivo, geom. mean
[3] = Safety: adverse events in study participants; settings: for participants with adverse event (AE) / total number of AEs: during the treatment named; for participants with adverse event (AE): healthy participants
[4] = cited from earlier work; remark: listed apart in the source
[5] = microdose cocktail alone, cobicistat cohort (n = 6)
[6] = microdose cocktail alone, rifampicin cohort (n = 6)
[7] = microdose cocktail alone, voriconazole cohort (n = 6)
[8] = microdose cocktail during voriconazole (n = 6)
[9] = FXaI with cobicistat / FXaI alone

SMILES: CN1CCc2nc(C(=O)N[C@@H]3C[C@@H](C(=O)N(C)C)CC[C@@H]3NC(=O)C(=O)Nc3ccc(Cl)cn3)sc2C1 [edoxaban]
- sex differences in pharmacokinetics (in words) [1]: No sex differences
- Cl/F reduced to (% of FXaI alone) ([1]; by cobicistat): 57%
- Vss/F reduced to (% of FXaI alone) ([1]; by cobicistat): 42%
- terminal elimination half-life shortening ([1]; by cobicistat): 25%
- Cl/F reduced to (% of FXaI alone) ([1]; by single dose rifampicin): 53%
- Vss/F reduced to (% of FXaI alone) ([1]; by single dose rifampicin): 37%
- terminal elimination half-life shortening ([1]; by single dose rifampicin): 30%
- increased fraction excreted unchanged into urine ([1]; by single oral dose of rifampicin): 48.7%
- Ae (amount excreted in urine as parent drug) [1, 5]: 32.3 (23.6–44.3) % of dose
- Cl/F (apparent oral clearance) [1, 5]: 682 (578–804) mL/min
- Ae (amount excreted in urine as parent drug) [1, 6]: 27.2 (19.1–38.8) % of dose
- Cl/F (apparent oral clearance) [1, 6]: 643 (499–829) mL/min
- Ae (amount excreted in urine as parent drug) [1, 7]: 24.4 (17.7–33.6) % of dose
- Cl/F (apparent oral clearance) [1, 7]: 882 (619–1255) mL/min
- Ae (amount excreted in urine as parent drug) [1, 8]: 29.4 (21.2–40.8) % of dose
- Cl/F (apparent oral clearance) [1, 8]: 700 (445–1100) mL/min
- interaction / change of pharmacokinetics during voriconazole (in words) [1]: none and No significant change
- oral bioavailability [2]: ~ 50%
- excreted unchanged into urine ([2]; of an oral dose): About 24%
- found in faeces as parent drug ([2]; of the oral dose): ~ 50%

SMILES: Cc1ncc2n1-c1ccc(Cl)cc1C(c1ccccc1F)=NC2 [midazolam]
- AUC (CYP3A; AUC2–4, 10 μg midazolam + cobicistat (n = 6)): 0.27 ng·h/mL
- AUC (CYP3A; AUC2–4, 10 μg midazolam + voriconazole (n = 6)): 0.285 ng·h/mL

SMILES: CO[C@H]1/C=C/O[C@@]2(C)Oc3c(C)c(O)c4c(O)c(c(/C=N/N5CCN(C)CC5)c(O)c4c3C2=O)NC(=O)/C(C)=C\C=C\[C@H](C)[C@H](O)[C@@H](C)[C@@H](O)[C@@H](C)[C@H](OC(C)=O)[C@@H]1C [rifampicin]
- participants with adverse event (AE) [3]: none

SMILES: C[C@@H](c1ncncc1F)[C@](O)(Cn1cncn1)c1ccc(F)cc1F [voriconazole]
- CYP3A inhibition (in words) (CYP3A; judged from microdosed midazolam exposure): strong CYP3A inhibitors
- total number of AEs [3]: 7
- participants with adverse event (AE) [3]: Five out of 6
- visual disturbances (number of AEs) ([3]; during voriconazole treatment): 4

SMILES: COc1ccc(-n2nc(C(N)=O)c3c2C(=O)N(c2ccc(N4CCCCC4=O)cc2)CC3)cc1 [apixaban]
- sex differences in pharmacokinetics (in words) [1]: No sex differences
- Cl/F reduced to (% of FXaI alone) ([1]; by cobicistat): 60%
- Vss/F reduced to (% of FXaI alone) ([1]; by cobicistat): ~50%
- increase of AUC ([1]; by cobicistat): 67%
- reduction of clearance ([1]; by cobicistat): 40%
- Cl/F reduced to (% of FXaI alone) ([1]; by single dose rifampicin): 75%
- Vss/F reduced to (% of FXaI alone) ([1]; by single dose rifampicin): ~50%
- effect on Cmax (increase) ([1]; by single dose rifampicin): 69%
- reduction of clearance ([1]; by single dose rifampicin): 25%
- terminal elimination half-life shortening ([1]; by single dose rifampicin): ~40%
- Cl/F reduced to (% of FXaI alone) ([1]; by voriconazole): 75%
- effect on Cmax (increase) ([1]; by voriconazole): 15%
- reduction of apparent oral clearance (Cl/F) ([1]; by voriconazole): 25%
- renal clearance reduced to (% of FXaI alone) ([1]; during cobicistat): 70%
- Cl/F (apparent oral clearance) [1, 5]: 66.4 (60.0–73.5) mL/min
- Cl/F (apparent oral clearance) [1, 6]: 53.6 (44.5–64.6) mL/min
- Cl/F (apparent oral clearance) [1, 7]: 78.0 (69.0–88.4) mL/min
- Cl/F (apparent oral clearance) [1, 8]: 58.8 (42.5–81.4) mL/min
- interaction / change of pharmacokinetics during voriconazole (in words) [1]: minor interaction
- excreted unchanged into faeces and urine ([2]; given orally): ≥ 50%
- fraction metabolised by CYP1A2 and CYP2J2 ([2]; given orally): about 6%
- fraction metabolised via CYP3A ([2]; given orally): approximately 15%
- not identified or recovered so far ([2]; given orally): about 22%

SMILES: Cn1c(Cn2ccc(C(F)(F)F)c(Oc3cc(Cl)cc(C#N)c3)c2=O)n[nH]c1=O [doravirine]
- elimination half-life ([2]; alone): 18.6 h
- elimination half-life ([2]; with a single dose of rifampicin): 5.5 h

SMILES: O=C(NC[C@H]1CN(c2ccc(N3CCOCC3=O)cc2)C(=O)O1)c1ccc(Cl)s1 [rivaroxaban]
- sex differences in pharmacokinetics (in words) [1]: No sex differences
- AUC ratio (AUCR) [1, 9]: 2.0
- Cmax ratio [1, 9]: 1.39
- Vss/F reduced to (% of FXaI alone) ([1]; by cobicistat): 72%
- renal clearance reduced by ([1]; by cobicistat): ~50%
- terminal elimination half-life prolongation ([1]; by cobicistat): 40%
- Vss/F reduced to (% of FXaI alone) ([1]; by single dose rifampicin): 64%
- terminal elimination half-life shortening ([1]; by single dose rifampicin): 31%
- change of AUC ([1]; by voriconazole): 33%
- reduction of apparent oral clearance (Cl/F) ([1]; by voriconazole): 33%
- Ae (amount excreted in urine as parent drug) [1, 5]: 44.5 (32.5–61.1) % of dose
- Cl/F (apparent oral clearance) [1, 5]: 104 (84–129) mL/min
- Ae (amount excreted in urine as parent drug) [1, 6]: 54.8 (48.7–61.6) % of dose
- Cl/F (apparent oral clearance) [1, 6]: 113 (84–152) mL/min
- Ae (amount excreted in urine as parent drug) [1, 7]: 53.7 (46.2–60.1) % of dose
- Cl/F (apparent oral clearance) [1, 7]: 121 (85–172) mL/min
- Ae (amount excreted in urine as parent drug) [1, 8]: 55.5 (47.8–64.4) % of dose
- Cl/F (apparent oral clearance) [1, 8]: 92 (62–137) mL/min
- interaction / change of pharmacokinetics during voriconazole (in words) [1]: minor interaction
- AUC ratio with and without ketoconazole ([4]; microdosed FXaI cocktail): 2.27
- AUC ratio with and without ketoconazole ([4]; therapeutic dose, single-dose, 200 mg ketoconazole): 1.82
- AUC ratio with and without ketoconazole ([4]; therapeutic dose, steady-state, 400 mg ketoconazole): 2.58
- share of CYP3A and CYP2J2 in total clearance [2]: ~ 32%

SMILES: CC(C)c1nc(CN(C)C(=O)N[C@@H](CCN2CCOCC2)C(=O)N[C@H](CC[C@H](Cc2ccccc2)NC(=O)OCc2cncs2)Cc2ccccc2)cs1 [cobicistat]
- total number of AEs [3]: 3
- participants with adverse event (AE) [3]: 3 out of 6
